Measured values reported in paper PMC6261607, “Novel high–throughput myofibroblast assays identify agonists with therapeutic potential in pulmonary fibrosis that act via EP2 and EP4 receptors” (PLoS ONE, 2018).
Counter-ions that a name gives are not always drawn. Like-named read-outs stand apart in the source and are kept apart here.

What was measured:
[1] = tested on: normal human lung fibroblasts (NHLF); assay: Nuclear count in the HCA, standard assay; assay type: cell-based; details: read-out: Nuclear count IC50
Protocol: (§1) The plate was washed 3 times with starvation medium, e.g. fibroblast basal medium (FBM, Lonza) supplemented with 0.1% faf BSA, 100 units / ml of penicillin and 100 μg / ml of streptomycin and 250 ng / ml amphotericin B, and then starved for 24 h in 30 μl volume. NHLF were differentiated into myofibroblasts by incubation with 5 ng / ml TGF–β1 (from a stock of 20 μg / ml in 4 mM HCl, 1 mg / ml BSA) for 48 h. Compounds were prepared as 5x stocks in starvation medium and added to the starved cells to a final 1x concentration concomitant with TGF–β1 addition. The final DMSO concentration in the assay was 0.6% in all wells. 48 h after TGF–β1 addition, the medium was removed and the cells were fixed in methanol for 10 min at room temperature (RT). After fixation, cells were washed 3 times with 1 x PBS and either stored at 4°C for up to 3 days or further processed. […] Images were acquired on the Opera Phenix confocal high–content screening system (Perkin Elmer) using the 20–x water immersion lens.
(§2) DAPI stained nuclei were used to identify cells. α–SMA and FN regions were then identified and mapped to the corresponding nuclei for background correction, cell segmentation and cell feature computation to identify, classify and weigh over 400 features per cell. The computed features (S1 Table) comprise, but are not limited to, granularity, intensity, texture, area, shape and solidity of a cell in both α–SMA–and FN–expressing regions. The 0% compound effect (5 ng / ml TGF–β1) and the 100% compound effect (0 ng / ml TGF–β1) controls, were used to train and validate a support vector machine (SVM), a supervised learning model with associated learning algorithm that, once successfully validated, was applied to every cell in every well of the assayed microtiter plate. The SVM allowed autonomous weighting and classification of the characteristics and thus enabled the classifier to decide which characteristics were most relevant for the differentiation of the cell types. […] The classification of each cell was aggregated to a cell type ratio per well, represented as the computed percentage effect value per well indicative of the degree of myofibroblast differentiation. E.g. 100% equals complete myofibroblast differentiation, 0% indicates a pure fibroblast population without any signs of differentiation.

[2] = tested on: normal human lung fibroblasts (NHLF); assay: Phenotypic high-content assay (HCA) of TGF–β1–induced fibroblast–to–myofibroblast differentiation; assay type: cell-based; details: for IC50: read-out: HCA IC50; for inhibition at 10 µM: read-out: Effect HCA at 10 µM [% inhibition]
Protocol: as §1, §2

NHLF cells = assay: RealTime–Glo MT viability assay
Protocol: The effect of compounds on cell viability was assessed by quantifying the relative metabolic activity of cells using the non–lytic luminescence–based RealTime–Glo™ MT cell viability assay (Promega) according to the manufacturer’s instructions.

[3] = Homo sapiens, Fibroblast, 48 h, standard HCA, NHLF, 5 ng/ml TGF–β1, 48 h
[4] = Homo sapiens, Fibroblast, 48 h, NHLF, 5 ng/ml TGF–β1 for 48 h, compound added with TGF–β1, mean ± SD
[5] = Homo sapiens, Fibroblast, 10 µM compound, 5 ng/ml TGF–β1, 48 h
[6] = standard HCA, NHLF, 5 ng/ml TGF–β1, 48 h
[7] = 10 µM compound, 5 ng/ml TGF–β1, 48 h
[8] = NHLF, 5 ng/ml TGF–β1 for 48 h, compound added with TGF–β1, mean ± SD

Compound	IC50 [1, 3] [µM]	IC50 [2, 4] [µM]	inhibition at 10 µM [2, 5] [%]	Effect on viability at 10 µM [% reduction] (NHLF cells; 10 µM compound)	Effect on viability at 10 µM [% reduction] (NHLF cells; human, 10 µM)	further results
Nc1c2ccccc2nc2ccccc12 [Aminacrine]	24	6	97	2		
COc1ccc(CCN2CCC(Nc3nc4ccccc4n3Cc3ccc(F)cc3)CC2)cc1 [Astemizole]	8.3		105		49 % reduction	
Nc1ncn(C2OC(CO)C(O)C2O)c(=O)n1 (stereo not drawn) [Azacytidine–5]						IC50 [1, 6]: > 25 µM; Effect HCA at 10 µM [% inhibition] [2, 7]: 97 % inhibition; IC50 [2, 8]: 3.2 µM; Effect on viability at 10 µM [% reduction] (NHLF cells): –4 % reduction
Cc1c(-c2ccc(O)cc2)n(Cc2ccc(OCCN3CCCCCC3)cc2)c2ccc(O)cc12.Cl [Bazedoxifene HCl]						Effect on viability at 10 µM [% reduction] (NHLF cells): 55 % reduction
CC(C)(C)CC(C)(C)c1ccc(OCCOCC[N+](C)(C)Cc2ccccc2)cc1 [Benzethonium chloride]				72		
CC[C@@]1(O)C(=O)OCc2c1cc1n(c2=O)Cc2cc3ccccc3nc2-1 [Camptothecine (S+)]				5		IC50 [1, 6]: > 25 µM; Effect HCA at 10 µM [% inhibition] [2, 7]: 105 % inhibition; IC50 [2, 8]: 0.041 µM
CC(C)C[C@H](NC(=O)[C@H](CCc1ccccc1)NC(=O)CN1CCOCC1)C(=O)N[C@@H](Cc1ccccc1)C(=O)N[C@@H](CC(C)C)C(=O)[C@@]1(C)CO1 [Carfilzomib (PR–171), Carfilzomib]		0.004	100		52 % reduction	
[H]/N=C(\N/C(=N/[H])NCCCCCCNC(=N)NC(=N)Nc1ccc(Cl)cc1)Nc1ccc(Cl)cc1 [Chlorhexidine]		5.8	80		24 % reduction	
Oc1c(Cl)cc(Cl)c2cccnc12 [Chloroxine]	> 25	5.9	80		14 % reduction	
COCCOC(=O)C1=C(C)NC(C)=C(C(=O)OC/C=C/c2ccccc2)C1c1cccc([N+](=O)[O-])c1 (stereo not drawn) [Cilnidipine]	> 25	8.04	92	15		
C[C@@H](Oc1cc(-c2cnn(C3CCNCC3)c2)cnc1N)c1c(Cl)ccc(F)c1Cl [Crizotinib (PF–02341066), Crizotinib]	16	1.5	63	66		
C[C@@H]1C[C@@H]([C@H](O)CC2CC(=O)NC(=O)C2)C(=O)[C@@H](C)C1 [Cycloheximide]				27		IC50 ([1]; Homo sapiens, Fibroblast, 48 h): > 25 µM; inhibition at 10 µM ([2]; Homo sapiens, Fibroblast, 48 h): 91%; IC50 ([2]; Homo sapiens, Fibroblast, 48 h): 0.109 µM
CC(C)(C)c1nc(-c2cccc(NS(=O)(=O)c3c(F)cccc3F)c2F)c(-c2ccnc(N)n2)s1 [Dabrafenib (GSK2118436), Dabrafenib]	> 25	2.9	56	9		
Cc1nc(Nc2ncc(C(=O)Nc3c(C)cccc3Cl)s2)cc(N2CCN(CCO)CC2)n1 [Dasatinib (BMS–354825), Dasatinib]	> 25	1.02	89		–10 % reduction	
COc1cccc2c1C(=O)c1c(O)c3c(c(O)c1C2=O)C[C@@](O)(C(C)=O)C[C@@H]3O[C@H]1C[C@H](N)[C@H](O)[C@H](C)O1 [Daunorubicin hydrochloride]					14 % reduction	inhibition at 10 µM ([2]; Homo sapiens, Fibroblast, 48 h): 73%; IC50 ([2]; Homo sapiens, Fibroblast, 48 h): 0.27 µM
Cc1cc(N)c2ccccc2[n+]1CCCCCCCCCC[n+]1c(C)cc(N)c2ccccc21 [Dequalinium dichloride]	> 25	5.8	67		39 % reduction	
C[C@]12CC[C@H](O)C[C@H]1CC[C@@H]1[C@@H]2CC[C@]2(C)[C@@H](C3=CC(=O)OC3)CC[C@]12O [Digitoxigenin]				22		IC50 ([1]; Homo sapiens, Fibroblast, 48 h): > 25 µM; inhibition at 10 µM ([2]; Homo sapiens, Fibroblast, 48 h): 93%; IC50 ([2]; Homo sapiens, Fibroblast, 48 h): 0.039 µM
C[C@H]1O[C@@H](O[C@H]2[C@@H](O)C[C@H](O[C@H]3[C@@H](O)C[C@H](O[C@H]4CC[C@@]5(C)[C@H](CC[C@@H]6[C@@H]5C[C@@H](O)[C@]5(C)[C@@H](C7=CC(=O)OC7)CC[C@]65O)C4)O[C@@H]3C)O[C@@H]2C)C[C@H](O)[C@@H]1O [Digoxin]					19 % reduction	IC50 ([1]; Homo sapiens, Fibroblast, 48 h): > 25 µM; inhibition at 10 µM ([2]; Homo sapiens, Fibroblast, 48 h): 87%; IC50 ([2]; Homo sapiens, Fibroblast, 48 h): 0.01 µM
COc1cccc2c1C(=O)c1c(O)c3c(c(O)c1C2=O)C[C@@](O)(C(=O)CO)C[C@@H]3O[C@H]1C[C@H](N)[C@H](O)[C@H](C)O1 [Doxorubicin hydrochloride]	> 25	0.45	64		20 % reduction	
CC[C@H]1CN2CCc3cc(OC)c(OC)cc3[C@@H]2C[C@@H]1C[C@H]1NCCc2cc(OC)c(OC)cc21 [Emetine]	> 25	0.071	100	25		
COc1cccc2c1C(=O)c1c(O)c3c(c(O)c1C2=O)C[C@@](O)(C(=O)CO)C[C@@H]3O[C@H]1C[C@H](N)[C@@H](O)[C@H](C)O1 [Epirubicin hydrochloride]		1.07	93		28 % reduction	
Cl.Cl.Fc1ccc(C(OCCN2CCN(CCCc3ccccc3)CC2)c2ccc(F)cc2)cc1 [GBR 12909 dihydrochloride]						Effect HCA at 10 µM [% inhibition] [2, 7]: 56 % inhibition; IC50 [2, 8]: 9.9 µM; Effect on viability at 10 µM [% reduction] (NHLF cells): 13 % reduction
Oc1c(Cl)cc(Cl)c(Cl)c1Cc1c(O)c(Cl)cc(Cl)c1Cl [Hexachlorophene]						IC50 ([1]; Homo sapiens, Fibroblast, 48 h): > 25 µM; inhibition at 10 µM ([2]; Homo sapiens, Fibroblast, 48 h): 93%; IC50 ([2]; Homo sapiens, Fibroblast, 48 h): 6.7 µM
CN[C@@H]1C[C@@H](c2ccc(Cl)c(Cl)c2)c2ccccc21 [Indatraline hydrochloride]			67	20		IC50 ([2]; Homo sapiens, Fibroblast, NHLF, 5 ng/ml TGF–β1 for 48 h, compound added with TGF–β1, mean ± SD): 8.06 µM
O=C1c2c(O)ccc(O)c2C(=O)c2c(NCCNCCO)ccc(NCCNCCO)c21 [Mitoxantrone dihydrochloride]		0.62	101		31 % reduction	
C=CC(=O)N1CCC[C@@H](n2nc(-c3ccc(Oc4ccccc4)cc3)c3c(N)ncnc32)C1 [PCI–32765 (Ibrutinib), Ibrutinib]					22 % reduction	
O=C(CCCCCCC(=O)Nc1ccccc1)NO [Vorinostat]				24		
